Experimental data: patent publication US20240423207A1, “PICOLINAMIDE COMPOUNDS WITH FUNGICIDAL ACTIVITY” (CORTEVA AGRISCIENCE LLC, priority 2014, published 2024)

Experiments:
Type in all cases: in vivo
[1] = tested on: Leptosphaeria nodorum; experiment: Wheat Glume Blotch (LEPTNO) fungicidal activity on wheat seedlings; conditions: Parastagonospora nodorum, 24 h, 1 Day Protectant, read-out: LEPTNO 1 DP disease control
Protocol: Technical grades of materials were dissolved in acetone, which were then mixed with nine volumes of water (H2O) containing 110 ppm Triton X-100. The fungicide solutions were applied onto wheat seedlings using an automated booth sprayer to run-off. All sprayed plants were allowed to air dry prior to further handling. All fungicides were evaluated using the aforementioned method for their activity vs. all target diseases, unless stated otherwise. Wheat leaf blotch and brown rust activity were also evaluated using track spray applications, in which case the fungicides were formulated as EC formulations, containing 0.1% Trycol 5941 in the spray solutions. Wheat plants (variety Yuma) were grown from seed in a greenhouse in 50% mineral soil/50% soil-less Metro mix until the first leaf was fully emerged, with 7-10 seedlings per pot. These plants were inoculated with an aqueous spore suspension of Septoria tritici either prior to or after fungicide treatments. After inoculation the plants were kept in 100% relative humidity (one day in a dark dew chamber followed by two to three days in a lighted dew chamber at 20° C.) to permit spores to germinate and infect the leaf. The plants were then transferred to a greenhouse set at 20° C. for disease to develop. When disease symptoms were fully expressed on the 1st leaves of untreated plants, infection levels were assessed on a scale of 0 to 100 percent disease severity. Percent disease control was calculated using the ratio of disease severity on treated plants relative to untreated plants. Example C: Evaluation of Fungicidal Activity: Wheat Glume Blotch (Leptosphaeria nodorum; Bayer code […]) Wheat plants (variety Yuma) were grown from seed in a greenhouse in 50% mineral soil/50% soil-less Metro mix until the first leaf was fully emerged, with 7-10 seedlings per pot. These plants were inoculated with an aqueous spore suspension of Leptosphaeria nodorum 24 h after fungicide treatments. After inoculation the plants were kept in 100% relative humidity (one day in a dark dew chamber followed by two days in a lighted dew chamber at 20° C.) to permit spores to germinate and infect the leaf. The plants were then transferred to a greenhouse set at 20° C. for disease to develop. Fungicide formulation, application and disease assessment followed the procedures as described in the Example A.

[2] = tested on: Alternaria solani; experiment: Tomato Early Blight (ALTESO) fungicidal activity on tomato plants; conditions: 24 h, 1 Day Protectant, read-out: ALTESO 1 DP disease control
Protocol: Technical grades of materials were dissolved in acetone, which were then mixed with nine volumes of water (H2O) containing 110 ppm Triton X-100. The fungicide solutions were applied onto wheat seedlings using an automated booth sprayer to run-off. All sprayed plants were allowed to air dry prior to further handling. All fungicides were evaluated using the aforementioned method for their activity vs. all target diseases, unless stated otherwise. Wheat leaf blotch and brown rust activity were also evaluated using track spray applications, in which case the fungicides were formulated as EC formulations, containing 0.1% Trycol 5941 in the spray solutions. Wheat plants (variety Yuma) were grown from seed in a greenhouse in 50% mineral soil/50% soil-less Metro mix until the first leaf was fully emerged, with 7-10 seedlings per pot. These plants were inoculated with an aqueous spore suspension of Septoria tritici either prior to or after fungicide treatments. After inoculation the plants were kept in 100% relative humidity (one day in a dark dew chamber followed by two to three days in a lighted dew chamber at 20° C.) to permit spores to germinate and infect the leaf. The plants were then transferred to a greenhouse set at 20° C. for disease to develop. When disease symptoms were fully expressed on the 1st leaves of untreated plants, infection levels were assessed on a scale of 0 to 100 percent disease severity. Percent disease control was calculated using the ratio of disease severity on treated plants relative to untreated plants. Example I: Evaluation of Fungicidal Activity: Tomato Early Blight (Alternaria solani; Bayer code […]) Tomato plants (variety Outdoor Girl) were propagated in soil-less Metro mix, with each pot having one plant, and used when 12 to 14 days old. Test plants were inoculated with an aqueous spore suspension of Alternaria solani 24 h after fungicide treatments. After inoculation the plants were kept in 100% relative humidity (one day in a dark dew chamber followed by two to three days in a lighted dew chamber at 20° C.) to permit spores to germinate and infect the leaf. The plants were then transferred to a growth room at 22° C. for disease to develop. Fungicide formulation, application and disease assessment on the sprayed leaves followed the procedures as described in the Example A.

[3] = tested on: Venturia inaequalis; experiment: Apple Scab (VENTIN) fungicidal activity on apple seedlings; conditions: 24 h, 1 Day Protectant, read-out: VENTIN 1 DP disease control
Protocol: Technical grades of materials were dissolved in acetone, which were then mixed with nine volumes of water (H2O) containing 110 ppm Triton X-100. The fungicide solutions were applied onto wheat seedlings using an automated booth sprayer to run-off. All sprayed plants were allowed to air dry prior to further handling. All fungicides were evaluated using the aforementioned method for their activity vs. all target diseases, unless stated otherwise. Wheat leaf blotch and brown rust activity were also evaluated using track spray applications, in which case the fungicides were formulated as EC formulations, containing 0.1% Trycol 5941 in the spray solutions. Wheat plants (variety Yuma) were grown from seed in a greenhouse in 50% mineral soil/50% soil-less Metro mix until the first leaf was fully emerged, with 7-10 seedlings per pot. These plants were inoculated with an aqueous spore suspension of Septoria tritici either prior to or after fungicide treatments. After inoculation the plants were kept in 100% relative humidity (one day in a dark dew chamber followed by two to three days in a lighted dew chamber at 20° C.) to permit spores to germinate and infect the leaf. The plants were then transferred to a greenhouse set at 20° C. for disease to develop. When disease symptoms were fully expressed on the 1st leaves of untreated plants, infection levels were assessed on a scale of 0 to 100 percent disease severity. Percent disease control was calculated using the ratio of disease severity on treated plants relative to untreated plants. Example D: Evaluation of Fungicidal Activity: Apple Scab (Venturia inaequalis; Bayer code […]) Apple seedlings (variety McIntosh) were grown in soil-less Metro mix, with one plant per pot. Seedlings with two expanding young leaves at the top (older leaves at bottom of the plants were trimmed) were used in the test. Plants were inoculated with a spore suspension of Venturia inaequalis 24 h after fungicide treatment and kept in a 22° C. dew chamber with 100% relative humidity for 48 h, and then moved to a greenhouse set at 20° C. for disease to develop. Fungicide formulation, application and disease assessment on the sprayed leaves followed the procedures as described in the Example A.

Q: With `COc1ccnc(C(=O)N[C@@H](C)C(=O)O[C@@H](C)C(c2ccc(F)cc2)c2ccc(F)cc2)c1OC(C)=O` [Cmpd 145] as the compound, how does the pest or weed control at 100 ppm [1] read?
A: > 80%

Q: And the pest or weed control at 100 ppm [2]?
A: > 80%

Q: And the pest or weed control at 100 ppm [3]?
A: > 80%

Q: What does the source list for `COc1ccnc(C(=O)N[C@@H](C)C(=O)O[C@@H](C)C(c2ccc(F)cc2F)c2ccc(F)cc2F)c1OCOC(C)=O` [Cmpd 148]?
A: pest or weed control at 100 ppm [1]: > 80%; pest or weed control at 100 ppm [2]: < 80%; pest or weed control at 100 ppm [3]: > 80%

Q: With `COc1ccnc(C(=O)N[C@@H](C)C(=O)O[C@@H](C)C(c2ccccc2)c2ccccc2)c1OC(=O)C(C)C` [Cmpd 140] as the compound, how does the pest or weed control at 100 ppm [1] read?
A: > 80%

Q: What about the pest or weed control at 100 ppm [2] of the same compound?
A: > 80%

Q: What about the pest or weed control at 100 ppm [3] of the same compound?
A: > 80%

Q: Which pest or weed control at 100 ppm [1] does the source give for `COc1ccnc(C(=O)N[C@@H](C)C(=O)O[C@@H](C)C(c2ccc(F)cc2)c2ccc(F)cc2)c1OCOC(C)=O` [Cmpd 146] here?
A: > 80%

Q: And the pest or weed control at 100 ppm [2]?
A: > 80%

Q: What about the pest or weed control at 100 ppm [3] of the same compound?
A: > 80%

Q: Which results are given for `COc1ccnc(C(=O)N[C@@H](C)C(=O)O[C@@H](C)C(c2ccccc2)c2ccccc2)c1OC(C)=O` [Cmpd 139, (S)-(S)-1,1-diphenylpropan-2-yl 2-(3-acetoxy-4-methoxypicolinamido)propanoate]?
A: pest or weed control at 100 ppm [1]: > 80%; pest or weed control at 100 ppm [2]: < 80%; pest or weed control at 100 ppm [3]: > 80%

Q: How did the pest or weed control at 100 ppm [1] turn out when `COc1ccnc(C(=O)N[C@@H](C)C(=O)O[C@@H](C)C(c2ccccc2)c2ccccc2)c1OCOC(=O)C(C)C` [Cmpd 142, (S)-(S)-1,1-diphenylpropan-2-yl 2-(3-((isobutyryloxy)methoxy)-4-methoxypicolinamido)propanoate] was run?
A: > 80%

Q: And the pest or weed control at 100 ppm [2]?
A: > 80%

Q: What about the pest or weed control at 100 ppm [3] of the same compound?
A: > 80%

Q: Which results are given for `COc1ccnc(C(=O)N[C@@H](C)C(=O)O[C@@H](C)C(c2ccccc2)c2ccccc2)c1OCOC(C)=O` [Cmpd 141, (S)-(S)-1,1-diphenylpropan-2-yl 2-(3-(acetoxymethoxy)-4-methoxypicolinamido)propanoate]?
A: pest or weed control at 100 ppm [1]: > 80%; pest or weed control at 100 ppm [2]: < 80%; pest or weed control at 100 ppm [3]: > 80%

Q: Which results are given for `COc1ccnc(C(=O)N[C@@H](C)C(=O)O[C@@H](C)C(c2ccc(Cl)cc2)c2ccc(Cl)cc2)c1OC(C)=O` [Cmpd 174]?
A: pest or weed control at 100 ppm [1]: > 80%; pest or weed control at 100 ppm [2]: < 80%; pest or weed control at 100 ppm [3]: < 80%

Q: For `COc1ccnc(C(=O)N[C@@H](C)C(=O)O[C@@H](C)C(c2ccc(F)cc2F)c2ccc(F)cc2F)c1OC(C)=O` [Cmpd 150], which pest or weed control at 100 ppm [1] is on record?
A: > 80%

Q: What about the pest or weed control at 100 ppm [2] of the same compound?
A: > 80%

Q: And the pest or weed control at 100 ppm [3]?
A: > 80%

Q: Which results are given for `COc1ccnc(C(=O)N[C@@H](C)C(=O)O[C@@H](C)C(c2ccc(Cl)cc2)c2ccc(Cl)cc2)c1OCOC(C)=O` [Cmpd 176]?
A: pest or weed control at 100 ppm [1]: > 80%; pest or weed control at 100 ppm [2]: < 80%; pest or weed control at 100 ppm [3]: > 80%
